Where a name gives a salt, the structure may show the parent alone.

In the first test the target is T1, recombinant full-length WRN protein (1-1432) (Homo sapiens, UniProt Q14191).
T1 construct: recombinant full-length WRN protein (1-1432)
T1 sequence (Q14191 whole entry): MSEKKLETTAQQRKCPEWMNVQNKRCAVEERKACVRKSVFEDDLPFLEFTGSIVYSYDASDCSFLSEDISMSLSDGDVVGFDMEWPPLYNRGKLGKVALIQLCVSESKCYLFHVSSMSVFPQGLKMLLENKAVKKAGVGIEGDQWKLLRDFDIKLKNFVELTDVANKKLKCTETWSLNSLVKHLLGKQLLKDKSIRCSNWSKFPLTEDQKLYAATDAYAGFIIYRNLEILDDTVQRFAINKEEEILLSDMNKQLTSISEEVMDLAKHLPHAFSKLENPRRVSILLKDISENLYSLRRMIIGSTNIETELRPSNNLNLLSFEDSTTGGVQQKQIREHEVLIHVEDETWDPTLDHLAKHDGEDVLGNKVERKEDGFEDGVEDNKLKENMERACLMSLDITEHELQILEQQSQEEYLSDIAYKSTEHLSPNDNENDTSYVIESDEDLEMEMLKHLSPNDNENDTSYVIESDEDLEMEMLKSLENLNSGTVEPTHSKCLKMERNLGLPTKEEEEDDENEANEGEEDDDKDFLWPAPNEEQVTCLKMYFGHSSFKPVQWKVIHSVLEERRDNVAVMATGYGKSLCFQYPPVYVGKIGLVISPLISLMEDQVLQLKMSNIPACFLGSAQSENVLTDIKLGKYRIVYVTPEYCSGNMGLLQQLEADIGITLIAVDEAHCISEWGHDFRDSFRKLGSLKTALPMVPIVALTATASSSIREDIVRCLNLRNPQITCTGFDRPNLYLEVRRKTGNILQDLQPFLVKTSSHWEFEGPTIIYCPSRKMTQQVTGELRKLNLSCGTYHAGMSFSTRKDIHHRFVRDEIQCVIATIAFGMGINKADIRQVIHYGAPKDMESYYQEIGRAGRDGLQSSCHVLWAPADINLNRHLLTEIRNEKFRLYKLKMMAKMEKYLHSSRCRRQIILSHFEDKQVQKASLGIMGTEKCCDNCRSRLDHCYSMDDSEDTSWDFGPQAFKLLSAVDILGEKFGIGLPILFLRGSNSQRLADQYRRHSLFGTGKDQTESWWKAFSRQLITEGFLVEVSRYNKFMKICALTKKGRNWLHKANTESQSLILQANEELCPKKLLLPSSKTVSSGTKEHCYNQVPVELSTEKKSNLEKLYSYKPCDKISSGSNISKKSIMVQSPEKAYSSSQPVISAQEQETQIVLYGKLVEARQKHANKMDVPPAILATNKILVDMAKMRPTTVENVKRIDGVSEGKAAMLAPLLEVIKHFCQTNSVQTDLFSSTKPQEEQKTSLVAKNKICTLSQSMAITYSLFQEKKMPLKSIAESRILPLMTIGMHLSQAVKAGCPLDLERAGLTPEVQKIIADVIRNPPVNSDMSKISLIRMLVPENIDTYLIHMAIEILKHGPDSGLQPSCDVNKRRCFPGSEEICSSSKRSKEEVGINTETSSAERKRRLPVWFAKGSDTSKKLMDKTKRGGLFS
In words: WRN unwinding activity, fluorogenic 384-well assay (Example A). In kind it is biochemical. To be noted: WRN unwinding activity, 4 hr; Table 2; read-out: 4 hr UNW pIC50 (converted). An outline of the steps: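 200 pM enzyme (2× stock) preincubated with compound 4 h at ambient temperature, then 200 μM ATP and 12 nM quenched TAMRA-labelled dsDNA (2× stocks) added for 60 min; EDTA-quenched. Buffer 25 mM Tris pH 8.0, 5 mM NaCl, 2 mM MgCl2. Fluorescence at 525/598 nm; pIC50 from four-parameter fit.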
As for `O=C(O)[C@@H]1[C@@H](c2ccc([C@H]3CCC(F)(F)C3)cc2)CCC[C@H]1C(=O)Nc1ccc(C(F)(F)F)cc1F` (racemic) [Example 64, 1:1 Mixture of (1R,2S,6R)-2-(4-((S)-3,3-difluorocyclopentyl)phenyl)-6-((2-fluoro-4-(trifluoromethyl)phenyl)carbamoyl)cyclohexane-1-carboxylic acid AND (1R,2S,6R)-2-(4-((R)-3,3-difluorocyclopentyl)phenyl)-6-((2-fluoro-4-(trifluoromethyl)phenyl)carbamoyl)cyclohexane-1-carboxylic acid], the IC50 was 25.1 nM. Still for that read-out and setting: the same measure for `Cc1nc2cc(S(=O)(=O)N(C)c3ccc([C@H]4CCC[C@@H](C(=O)Nc5ccc(C(C)C)cc5)[C@H]4C(=O)O)cc3)ccc2n1C` (racemic) [Example 75, rac-(1R,2S,6R)-2-((4-isopropylphenyl)carbamoyl)-6-(4-((N,1,2-trimethyl-1H-benzo[d]imidazole)-5-sulfonamido)phenyl)cyclohexane-1-carboxylic acid]: 6.31 nM; for `O=C(O)[C@@H]1[C@@H](c2ccc(C3CC3)cc2)CCC[C@H]1C(=O)Nc1ccc(C(F)(F)F)cc1F` [Example 69, (1R,2S,6R)-2-(4-cyclopropylphenyl)-6-((2-fluoro-4-(trifluoromethyl)phenyl)carbamoyl)cyclohexane-1-carboxylic acid]: 6310 nM; for `O=C(O)[C@@H]1[C@@H](c2ccc(CC3CCNCC3)cc2)CCC[C@H]1C(=O)Nc1ccc(C(F)(F)F)cc1F` [Example 71, (1R,2R,6S)-2-((2-fluoro-4-(trifluoromethyl)phenyl)carbamoyl)-6-(4-(piperidin-4-ylmethyl)phenyl)cyclohexane-1-carboxylic acid]: 100000 nM. Same read-out and setting: the value for `CN(c1ccc([C@H]2CCC[C@@H](C(=O)Nc3ccc(C(F)(F)F)cc3F)[C@@H]2C(=O)O)cc1)S(=O)(=O)c1nnc[nH]1` [Example 96, (1R,2R,6S)-2-((2-fluoro-4-(trifluoromethyl)phenyl)carbamoyl)-6-(4-(N-methyl-4H-1,2,4-triazole-3-sulfonamido)phenyl)cyclohexane-1-carboxylic acid] was 0.501 nM; that for `CN(c1ccc([C@H]2CCC[C@@H](C(=O)Nc3ccc(C(F)(F)F)cc3F)[C@@H]2C(=O)O)cc1)S(=O)(=O)c1cccc(-c2nnco2)c1` [Example 105, (1R,2R,6S)-2-((2-fluoro-4-(trifluoromethyl)phenyl)carbamoyl)-6-(4-((N-methyl-3-(1,3,4-oxadiazol-2-yl)phenyl)sulfonamido)phenyl)cyclohexane-1-carboxylic acid] was 1.58 nM. As to `Cc1nc2cc(S(=O)(=O)N(C)c3ccc([C@H]4CCC[C@@H](C(=O)N[C@H]5CC[C@H](C(C)(C)O)CC5)[C@@H]4C(=O)O)cc3)ccc2n1C` [Example 183, (1R,2R,6S)-2-(((1r,4R)-4-(2-hydroxypropan-2-yl)cyclohexyl)carbamoyl)-6-(4-((N,1,2-trimethyl-1H-benzo[d]imidazole)-5-sulfonamido)phenyl)cyclohexane-1-carboxylic acid], the IC50 is 6.31 nM.

Consider `Cc1nc2cc(S(=O)(=O)N(C)c3ccc([C@H]4CCC[C@@H](C(=O)NC5CCC6(CCCC6)CC5)[C@@H]4C(=O)O)cc3)ccc2n1C` [Example 184, (1R,2R,6S)-2-(spiro[4.5]decan-8-ylcarbamoyl)-6-(4-((N,1,2-trimethyl-1H-benzo[d]imidazole)-5-sulfonamido)phenyl)cyclohexane-1-carboxylic acid, formic acid salt], for which the IC50 was 631 nM. On the same count and under the same terms, the value for `Cc1nc2cc(S(=O)(=O)N(C)c3ccc([C@H]4CCC[C@@H](C(=O)NC56CC(C(F)(F)F)(C5)C6)[C@@H]4C(=O)O)cc3)ccc2n1C` [Example 185, (1R,2R,6S)-2-((3-(trifluoromethyl)bicyclo[1.1.1]pentan-1-yl)carbamoyl)-6-(4-((N,1,2-trimethyl-1H-benzo[d]imidazole)-5-sulfonamido)phenyl)cyclohexane-1-carboxylic acid, formic acid salt] was 63.1 nM; that for `Cc1nc2cc(S(=O)(=O)N(C)c3ccc([C@H]4CCC[C@@H](C(=O)NC56CC(C(F)F)(C5)C6)[C@@H]4C(=O)O)cc3)ccc2n1C` [Example 186, (1R,2R,6S)-2-((3-(difluoromethyl)bicyclo[1.1.1]pentan-1-yl)carbamoyl)-6-(4-((N,1,2-trimethyl-1H-benzo[d]imidazole)-5-sulfonamido)phenyl)cyclohexane-1-carboxylic acid, formic acid salt] was 3160 nM. Still for that read-out and setting: the value for `Cc1nc2cc(S(=O)(=O)N(C)c3ccc([C@H]4CCC[C@@H](C(=O)N[C@H]5CC[C@@H](C6CCC6)CC5)[C@@H]4C(=O)O)cc3)ccc2n1C` [Example 189, (1R,2R,6S)-2-(((1s,4S)-4-cyclobutylcyclohexyl)carbamoyl)-6-(4-((N,1,2-trimethyl-1H-benzo[d]imidazole)-5-sulfonamido)phenyl)cyclohexane-1-carboxylic acid] was 398 nM.

Consider `Cc1nc2cc(S(=O)(=O)N(C)c3ccc([C@H]4CCC[C@@H](C(=O)N[C@@H]5C[C@@H]6CC(F)(F)C[C@@H]6C5)[C@@H]4C(=O)O)cc3)ccc2n1C` [Example 191, (1R,2R,6S)-2-(((2s,3aR,6aS)-5,5-difluorooctahydropentalen-2-yl)carbamoyl)-6-(4-((N,1,2-trimethyl-1H-benzo[d]imidazole)-5-sulfonamido)phenyl)cyclohexane-1-carboxylic acid], for which the IC50 is 398 nM. Still for that read-out and setting: the same measure for `Cc1nc2cc(S(=O)(=O)N(C)c3ccc([C@H]4CCC[C@@H](C(=O)N[C@@H]5CCC[C@@H](C(F)(F)F)C5)[C@@H]4C(=O)O)cc3)ccc2n1C` [Example 192, (1R,2R,6S)-2-(((1R,3R)-3-(trifluoromethyl)cyclohexyl)carbamoyl)-6-(4-((N,1,2-trimethyl-1H-benzo[d]imidazole)-5-sulfonamido)phenyl)cyclohexane-1-carboxylic acid]: 39800 nM; for `Cc1nc2cc(S(=O)(=O)N(C)c3ccc([C@H]4CCC[C@@H](C(=O)N[C@]56CC[C@H](CC5)C6)[C@@H]4C(=O)O)cc3)ccc2n1C` [Example 193, (1R,2R,6S)-2-(((1r,4R)-bicyclo[2.2.1]heptan-1-yl)carbamoyl)-6-(4-((N,1,2-trimethyl-1H-benzo[d]imidazole)-5-sulfonamido)phenyl)cyclohexane-1-carboxylic acid]: 20000 nM.

In the case of `CCC[C@H]1CC[C@@H](NC(=O)[C@@H]2CCC[C@H](c3ccc(N(C)S(=O)(=O)c4ccc5c(c4)nc(C)n5C)cc3)[C@H]2C(=O)O)CC1` [Example 195, (1R,2R,6S)-2-(((1r,4R)-4-propylcyclohexyl)carbamoyl)-6-(4-((N,1,2-trimethyl-1H-benzo[d]imidazole)-5-sulfonamido)phenyl)cyclohexane-1-carboxylic acid], the IC50 is 20 nM. Same read-out and setting: the value for `Cc1nc2cc(S(=O)(=O)N(C)c3ccc([C@H]4CCC[C@@H](C(=O)N[C@H]5CCCC[C@@H]5C)[C@@H]4C(=O)O)cc3)ccc2n1C` [Example 197, (1R,2R,6S)-2-(((1S,2S)-2-methylcyclohexyl)carbamoyl)-6-(4-((N,1,2-trimethyl-1H-benzo[d]imidazole)-5-sulfonamido)phenyl)cyclohexane-1-carboxylic acid] was 2510 nM; that for `Cc1nc2cc(S(=O)(=O)N(C)c3ccc([C@H]4CCC[C@@H](C(=O)NC56CC(C7CCC7)(C5)C6)[C@@H]4C(=O)O)cc3)ccc2n1C` [Example 198, (1R,2R,6S)-2-((3-cyclobutylbicyclo[1.1.1]pentan-1-yl)carbamoyl)-6-(4-((N,1,2-trimethyl-1H-benzo[d]imidazole)-5-sulfonamido)phenyl)cyclohexane-1-carboxylic acid] was 5.01 nM; that for `Cc1nc2cc(S(=O)(=O)N(C)c3ccc([C@H]4CCC[C@@H](COc5ccc(C(F)(F)F)cc5)[C@@H]4C(=O)O)cc3)ccc2n1C` [Example 205, (1R,2R,6S)-2-((4-(trifluoromethyl)phenoxy)methyl)-6-(4-((N,1,2-trimethyl-1H-benzo[d]imidazole)-5-sulfonamido)phenyl)cyclohexane-1-carboxylic acid] was 25.1 nM. `C#CC(=O)N(C)c1ccc([C@H]2CCC[C@@H](C(=O)Nc3ccc(C(F)(F)F)cc3F)[C@@H]2C(=O)O)cc1` [Example 229, (1R,2R,6S)-2-((2-fluoro-4-(trifluoromethyl)phenyl)carbamoyl)-6-(4-(N-methylpropiolamido)phenyl)cyclohexane-1-carboxylic acid]: the IC50 is 316 nM. Still for that read-out and setting: the same measure for `CN(c1ccc([C@H]2CCC[C@@H](C(=O)Nc3ccc(C(F)(F)F)cc3F)[C@@H]2C(=O)O)cc1)S(=O)(=O)c1ccc(C=O)c(O)c1` [Example 276, (1R,2R,6S)-2-((2-fluoro-4-(trifluoromethyl)phenyl)carbamoyl)-6-(4-((4-formyl-3-hydroxy-N-methylphenyl)sulfonamido)phenyl)cyclohexane-1-carboxylic acid]: 6.31 nM; for `Cc1nc2cc(S(=O)(=O)N(C)c3ccc([C@@H]4C[C@H](N5CCC(F)(F)C5)C[C@H](C(=O)Nc5ccc(C(F)(F)F)cc5F)[C@H]4C(=O)O)cc3)ccc2n1C` [Example 305, (1S,2S,4S,6R)-4-(3,3-difluoropyrrolidin-1-yl)-2-((2-fluoro-4-(trifluoromethyl)phenyl)carbamoyl)-6-(4-((N,1,2-trimethyl-1H-benzo[d]imidazole)-5-sulfonamido)phenyl)cyclohexane-1-carboxylic acid]: 316 nM.

A further test deals with SW48 human colorectal cancer cells (MSI-H cancer cells). In words: SW48 cell viability, CellTiter-Glo, 120 hours (Example B). To be noted: Homo sapiens, SW48, 120 h, read-out: SW48 pCC50, SW48 cell viability, 120 hours incubation (converted); Table 2. For orientation: Cellular ATP, detected with luciferase, serves as a proxy for viable cell number.
Consider `O=C(O)[C@@H]1[C@@H](c2ccc([C@H]3CCC(F)(F)C3)cc2)CCC[C@H]1C(=O)Nc1ccc(C(F)(F)F)cc1F` (racemic) [Example 64, 1:1 Mixture of (1R,2S,6R)-2-(4-((S)-3,3-difluorocyclopentyl)phenyl)-6-((2-fluoro-4-(trifluoromethyl)phenyl)carbamoyl)cyclohexane-1-carboxylic acid AND (1R,2S,6R)-2-(4-((R)-3,3-difluorocyclopentyl)phenyl)-6-((2-fluoro-4-(trifluoromethyl)phenyl)carbamoyl)cyclohexane-1-carboxylic acid], for which the CC50 was 15800 nM. On to `Cc1nc2cc(S(=O)(=O)N(C)c3ccc([C@H]4CCC[C@@H](C(=O)Nc5ccc(C(C)C)cc5)[C@H]4C(=O)O)cc3)ccc2n1C` (racemic) [Example 75, rac-(1R,2S,6R)-2-((4-isopropylphenyl)carbamoyl)-6-(4-((N,1,2-trimethyl-1H-benzo[d]imidazole)-5-sulfonamido)phenyl)cyclohexane-1-carboxylic acid], for which the CC50 was 5010 nM.

The values are drawn from patent US12662451B2, “Chemical compounds and uses thereof” (GLAXOSMITHKLINE INTELLECTUAL PROPERTY (NO.4) LIMITED, priority 2023, dated 2026).
